Like-named read-outs stand apart in the source and are kept apart here.

These results are taken from patent US11312726B2, “Thienodiazepine derivatives and application thereof” (priority 2017, dated 2022).

Data set [1] has as its system Human breast cancer MDA-MB-231_luc cell subcutaneous xenograft tumor. Put plainly: In vivo pharmacodynamics, MDA-MB-231_luc subcutaneous xenograft tumor model. As to conditions: 50 mg/kg PO BID × 21 days. Here is the method:
In Vivo Pharmacodynamics Study of Compound 32 on Human Breast Cancer MDA-MB-231_luc Cell Subcutaneous Xenograft Tumor Model
Strain: BALB/c nude mouse
Week-age and weight: 6-8 weeks of age, 18-22 grams of body weight
Supplier: Shanghai Sippr-BK laboratory animal Co. Ltd.
3. Experiment Methods and Steps
Human breast cancer MDA-MB-231_luc cells were cultured in monolayer in vitro and the culture conditions were RPMI-1640 culture medium (supplier: Gibco; article number: 22400-089; manufacturing batch number: 4868546) with 10% fetal bovine serum, 100 U/ml penicillin and 100 μg/ml streptomycin. The culture was performed at 37° C. in 5% CO2. Conventional digestion treatment with pancreatin-EDTA for passage was carried out twice a week. When the cells were in the exponential growth phase, the cells were harvested, counted, and inoculated.
3.2 Tumor Cell Inoculation
0.2 mL of 10×10^6 MDA-MB-231_luc cells were subcutaneously inoculated into the right-back of each nude mouse (PBS:Matrigel=1:1). The grouping and administration was started when the average tumor volume reached 100-150 mm^3.
3.3 Tumor Measurement and Experiment Indices
The experiment index was to investigate whether tumor growth was inhibited, delayed or cured. Tumor diameter was measured twice a week with vernier calipers. The equation for calculating the tumor volume was V=0.5×a×b^2, wherein a and b represented the major and minor diameters of the tumor, respectively.
The tumor inhibition effect of the compound was evaluated by TGI (%) or relative tumor proliferation rate T/C (%). TGI (%) reflected the tumor growth inhibition rate.
Relative tumor proliferation rate T/C (%) was calculated according to the below equation: T/C %=TRTV/CRTV×100% (TRTV: RTV of the treatment group; CRTV: RTV of the negative control group). The relative tumor volume (RTV) was calculated according to the results of the tumor measurement. The calculation equation was RTV=Vt/V0, where V0 was the average tumor volume measured at the grouping and administration (i.e. d0), and Vt was the average tumor volume at the time of a certain measurement. TRTV and CRTV were obtained from the data on the same day.
At the end of the experiment, the tumor weight would be measured and the Tweight/Cweight percentage would be calculated. Tweight and Cweight represented the tumor weights of the administration group and the medium control group, respectively.
Statistical analysis included mean value and standard error (SEM) of the tumor volume of each group at each time point. […] The comparison between two groups was analyzed by T-test, and the comparison between three or more groups was analyzed by one-way ANOVA.

A short description of data set [2]: In vivo pharmacokinetics test in mice. As to conditions: female Balb/c mice; for AUC(0-inf): read-out: Curve area (0-inf) AUC0-inf; for AUC(0-t): read-out: Curve area (0-t) AUC0-last; for half-life: read-out: Half life T1/2 (converted). On the procedure: In Vivo Pharmacokinetics Test of Compound 32 in Mice
Female Balb/c mice were used as test animals. The compound 32 was administrated intravenously and intragastrically to mice, then the drug concentrations in the plasma at different time points were determined by the LC/MS/MS method. The in vivo pharmacokinetic behavior of compound 32 in mice was studied, and its pharmacokinetic characteristics were evaluated.
1.1 Experiment drug: Compound 32
1.2 Experiment animals: Sixteen healthy adult female Balb/c mice were divided into four groups according to the principle of similar body weight, with four mice in each group. The animals were purchased from Shanghai Lingchang BioTech Co., Ltd. of Shanghai SLAC Laboratory Animal Co., Ltd., and the animal production license number was SCXK (Shanghai) 2013-0018.
An appropriate amount of the sample was taken, 5% final volume of DMSO was added, and then 95% final volume of 20% HP-β-CD was added. The mixture was ultrasonically stirred to obtain a 0.5 mg/mL clear solution. After filtration, it was used for the intravenous administration.
An appropriate amount of the sample was taken, and dissolved in a 0.5% sodium carboxymethyl cellulose solution. The mixture was ultrasonically stirred to obtain a 0.5 mg/mL homogeneous suspension, which was used for the intragastric administration.
Eight female Balb/c mice were divided into two groups. After fasting overnight, the first group was administered intravenously with the administration volume of 2.5 mL/kg and the dosage of 1 mg/kg. […]
After the female Balb/c mice were intravenously administrated, 30 μL of blood was taken from different mice at each time point of 0.0833, 0.25, 0.5, 1, 2, 4, 8 and 24 hours, and placed in test tubes containing 2 μL of EDTA-K2; and after the female Balb/c mice were intragastrically administrated, 30 μL of blood was taken at an alternative location at each time point of 0.25, 0.5, 1, 2, 4, 8 and 24 hours, and placed in test tubes containing 2 μL of EDTA-K2. The tube was centrifuged at 3000 g for 15 minutes to separate the plasma, and the separated plasma was stored at −60° C. Animals could take food 2 hours after the administration.
The LC/MS/MS method was used to measure the content of the compound to be tested in the plasma after the intravenous and intragastric administration to the mice. The linear range of the method was 2.00-6000 nmol/L; the plasma samples were analyzed after the protein precipitation by acetonitrile treatment.

Setting [3] is: mouse, plasma, po, Intragastric, 3 mg/kg (table; text says 2 mg/kg).
The mark [4] stands for this setting: mouse, plasma, Intravenous, 1 mg/kg.

As usually defined, the Tmax is the time at which the peak concentration occurs. As a reminder, the clearance is a measure of how efficiently the substance is removed, as volume per time. For the compound `Cc1sc2c(c1C)C(c1ccc(Cl)cc1)=N[C@@H](CC(=O)Nc1ccc3c(c1)COC3=O)c1nnc(C)n1-2` [Compound 32], in data set [1], the “change in body weight of the animals” value was “no significant change” and the “tolerance of the animals” value was “well tolerated”. In data set [1] (21st day after administration), the “relative tumor proliferation rate T/C” value amounted to 52.99% and the “tumor growth inhibition rate TGI” value was 54.85%. Besides, in data set [2], the “absorption (in words)” value is listed as “good absorption” and the “pharmacokinetic clearance (in words)” value was “low pharmacokinetic clearance”. In data set [2] (setting [3]), the AUC(0-inf) was found to be 2.82 µM·h, the AUC(0-t) was determined as 2.74 µM·h and the half-life is 1.47 h. The Tmax in data set [2] (mouse, plasma, po, Intragastric, 3 mg/kg (table; text says 2 mg/kg), read-out: Time to peak Tmax) was found to be 1 h. Also, the Vd in data set [2] (mouse, plasma, Intravenous, 1 mg/kg, read-out: Apparent distribution volume Vdss) is 1.19 L/kg. For the same compound, the clearance in data set [2] (mouse, plasma, Intravenous, 1 mg/kg, read-out: Clearance rate Cl) was 12.5 mL/min/kg. In data set [2] (setting [4]), the AUC(0-inf) came out at 2.5 µM·h, the AUC(0-t) worked out at 2.49 µM·h and the half-life was 1.09 h. Moreover, the Cmax in data set [2] (mouse, po, Intragastric, 3 mg/kg (table; text says 2 mg/kg), plasma, read-out: Drug concentration in blood Cmax) came out at 930 nM.
